According to patent US10307451B2, “Phytoestrogen product of red clover and pharmaceutical uses thereof” (Sinoveda Canada Inc., priority 2010, dated 2019):
Converted amounts (≈) assume the structure as drawn. Where two headings read alike, the source gives them in different places.

How the values were obtained:
[1] = Plasma protein binding of absorbable aglycones; type: in vitro ADME
From the text: (§1) The protocol used by (Moon, Sagawa et al. 2006) was used for measuring plasma protein binding of the absorbable aglycones. Parameters have been used for PBPK simulation. Conjugates of Biochanin A, formononetin, Genistein, Daidzein and Equol are predominant components in plasma. The respective aglycones constitute less than 5% of the total concentration.

[2] = system: human intestinal microflora; test: Biotransformation by human intestinal bacteria (fecal microflora incubation); type: in vitro ADME; conditions: for isoflavone left in the incubation media: human, 120 h, 100 µM
Experimental: Fresh human fecal samples were collected from 4 volunteers. Five grams of each were pooled together and mixed well with 30 mL BHI culture medium. The fecal suspension was centrifuged at 200 g for 5 min and supernatant was decanted and centrifuged at 5,000 g for another 30 min. The resultant precipitate was re-suspended with 10 mL BHI medium to produce intestinal micro flora solution.
As the biotransformation of drugs by human intestinal bacteria was determined in a 5 mL incubation system containing 250 μL intestinal microflora solution, 50 μL stock solution in DMSO in BHI medium. […] Zero-minute incubations served as controls. Reactions were stopped by extracting samples with 15 ml of ethanol twice. The two ethanol extractions were combined, dried and re-suspended in 80% methanol for HPLC/MS analysis.

human hepatocytes = test: Metabolism of isoflavone mixtures by human hepatocytes; type: in vitro ADME
Experimental: (§2) Human liver microsomes, intestinal microsomes, and hepatocytes of human female origin were purchased from XenoTech. All chemicals were purchased from Sigma-Aldrich. […] The final DMSO in buffer or media was kept at 0.1%. Protocols supplied by XenoTech Inc., the supplier, were used for glucuronidation with microsomal incubation, and hepatocyte incubation. Samples were analyzed using LC/MS.

[3] = system: human intestinal microsomes; test: Metabolism of isoflavone mixtures by human intestinal microsomes; type: in vitro ADME
Experimental: as §2

[4] = Solubility interactions of isoflavones in fasted simulated intestinal fluid (FaSSIF); type: physicochemical; conditions: for Biochanin A saturation concentration: fasted media, 37° C.
Experimental: Isoflavones: daidzein, genistein, formononetin and Biochanin A were obtained from Indofine. Simulated intestinal fluid buffer powder mimicking a fasted state (FaSSIF) was obtained from Biorelevant SIF media, Biorelevant.com, Switzerland.
To prepare accurate concentrations of isoflavones in microtubes, stock solutions of individual isoflavones were prepared at 1 mg/mL in methanol. The amount of isoflavone designated to be held constant was provided at a concentration that well exceeded (about 20×) the saturation concentration for that isoflavone. The appropriate amount of stock was transferred to each microtube and the material was dried down in a vacuum centrifuge.
The competing isoflavone was prepared at 0, 1, 5, 10, 50, 100, 200 μg/mL (FIGS. 11 and 12) and, in the case of formononetin, 400 μg/mL (FIG. 9).
In the case of formononetin competition with Biochanin A, the amount of formononetin was held constant at 50 μg in 1 ml buffer (saturation concentration for formononetin in FaSSIF is about 2 μg/mL). The competing Biochanin A was prepared at 0, 1, 5, 10, 50, 100 and 200 μg/mL (FIG. 10).
Each tube was then reconstituted with 1 mL of FaSSIF buffer, sonicated and allowed to equilibrate with occasional agitation for 24 hours at 37° C. This produced a solution that contained saturated isoflavone concentrations mimicking mammalian intestinal conditions.
At the end of 24 hours each tube containing isoflavones and FaSSIF buffer was briefly centrifuged at 5000 rpm in a microcentrifuge held at 37° C. (2 minutes). A portion of the supernatant (400 μL) was then immediately placed in a centrifugal filter unit (UltraFree-MC-GV […]) and the sample filtered by centrifugation (8000 rpm, 5 minutes, 37° C.). Upon filtration 200 μL filtrate was immediately placed in a microtube and 200 μL methanol added to ensure that the isoflavones remained in solution. The sample was mixed and 200 μL of the mixture was transferred to injection vials provided with 200 μL polypropylene injection inserts.
The samples were analyzed by HPLC with diode array detection at 260 nm using 20 μL injections.

[5] = CaCo-2 permeability of isoflavones in a Red clover extract; conditions: human
in vitro = conditions: human, Caco-2
Raw264.7 cells = test: Osteoclast differentiation in Raw264.7 cells (ACP/cell number); type: cell-based; conditions: 10 μM total isoflavones, MCSF and RANKL stimulated
Experimental: Effects of isoflavones on the differentiation of osteoblast in MC3T3 cells followed Ge et al., 2006 and osteoclast differentiation in Raw264.7 cells followed Garcia Palacios et al., 2005. Cell numbers were measured with CellTag from Li-Cor Biosciences. Both activities of alkaline and acid phosphatase were measured with a plate reader at 405 nm. Isoflavones were first dissolved in DMSO and stock solutions were prepared at 10 mM and the final concentration of total isoflavones in test solution was 10 μM. Osteoblast and osteoclast differentiations were quantified by measuring activities of alkaline phosphatase (ALP) and acidic phosphatase (ACP). ALP is highly expressed by the mature osteoblasts and ACP is expressed by osteoclasts. Values of integrated intensity of fluorescence from […] staining serve as a correction factor for the difference in cell numbers. Therefore, ALP/cell number and ACP/cell number ratios are used to quantify osteoblast and osteoclast activities. Raw246.7 cells were treated with MCSF and RANKL to stimulate the differentiation of osteoclasts. Isoflavones were added at the final concentration of 10 μM to examine their ability to inhibit differentiation.

Caco-2 = conditions: human
MC3T3 cells = test: Osteoblast differentiation of MC3T3 cells (ALP/cell number); type: cell-based; conditions: 10 μM total isoflavones, 1 week
Experimental: Effects of isoflavones on the differentiation of osteoblast in MC3T3 cells followed Ge et al., 2006 and osteoclast differentiation in Raw264.7 cells followed Garcia Palacios et al., 2005. Cell numbers were measured with CellTag from Li-Cor Biosciences. Both activities of alkaline and acid phosphatase were measured with a plate reader at 405 nm. Isoflavones were first dissolved in DMSO and stock solutions were prepared at 10 mM and the final concentration of total isoflavones in test solution was 10 μM. Osteoblast and osteoclast differentiations were quantified by measuring activities of alkaline phosphatase (ALP) and acidic phosphatase (ACP). ALP is highly expressed by the mature osteoblasts and ACP is expressed by osteoclasts. Values of integrated intensity of fluorescence from […] staining serve as a correction factor for the difference in cell numbers. Therefore, ALP/cell number and ACP/cell number ratios are used to quantify osteoblast and osteoclast activities. Confluence MC3T3 cells were treated with 10 μM of isoflavones for 1 week and then the activity of alkaline phosphatase (ALP) was measured as an indicator of differentiation. […] To examine if there were any synergistic effects, two isoflavones were mixed in a 1:9 ratio and tested in the final concentration of 10 μM. […]

plasma protein = test: Plasma protein binding of absorbable aglycones; type: in vitro ADME
From the text: as §1

Compound | fraction unbound [1] | bio-transformation products formed by intestinal microflora [2] | rate of metabolism by human hepatocytes (human hepatocytes; female, human) [ml/min/million cells] | metabolism by human intestinal microsomes ([3]; female, human) [ml/min/mg protein] | Papp [5] [×10⁻⁶ cm/s] | osteoclast differentiation (Raw264.7 cells) | other results
Oc1ccc([C@H]2COc3cc(O)ccc3C2)cc1 [Equol] | < 0.03 | most resistant to bio-transformation | 1.21E-5 | 1.07E-4 |  |  | isoflavone left in the incubation media [2]: over 60%
COc1ccc(-c2coc3cc(O)ccc3c2=O)cc1 [Formononetin] | < 0.03 | dihydroformononetin, dihydrodaidzein, daidzein, and equol | 3.45E-6 | 7.31E-5 | 22 |  | solubility thermodynamic at 24 h ([4]; 37 °C, fassif, thermodynamic from solid): ~2 µg/mL (≈ 7.46 µM); isoflavone left in the incubation media [2]: over 20%
O=c1c(-c2ccc(O)cc2)coc2cc(O[C@@H]3O[C@H](CO)[C@@H](O)[C@H](O)[C@H]3O)ccc12 [Daidzin] |  |  |  |  | 0.536 |  | 
O=c1c(-c2ccc(O)cc2)coc2cc(O)ccc12 [Daidzein] | ~0.2 |  | 4.07E-6 | 6.32E-5 |  | stimulating osteoclast differentiation | Papp (in vitro): 26.6 ×10⁻⁶ cm/s
COc1ccc(-c2coc3cc(O[C@@H]4O[C@H](CO)[C@@H](O)[C@H](O)[C@H]4O)cc(O)c3c2=O)cc1 [Biochanin A glucoside] |  |  |  |  |  |  | Mean Peff (Caco-2): 0.0164 ×10⁻⁶ cm/s
COc1ccc(-c2coc3cc(O[C@@H]4O[C@H](CO)[C@@H](O)[C@H](O)[C@H]4O)ccc3c2=O)cc1 [Ononin] |  |  |  |  | 0.122 |  | 
COc1ccc(-c2coc3cc(O)cc(O)c3c2=O)cc1 [Biochanin A] |  | dihydrobiochanin A, genistein, and dihydrogenistein |  |  |  | highest inhibition | ALP activity (osteoblast differentiation) (MC3T3 cells): highest ALP activity; Biochanin A saturation concentration ([4]; in the presence of 200 μg/mL daidzein): about 8.7 μg/mL; Biochanin A saturation concentration ([4]; in the presence of 200 μg/mL genistein): about 24.2 μg/mL; Biochanin A saturation concentration ([4]; in the presence of 400 μg/mL formononetin): about 4.5 μg/mL; Plasma protein binding (plasma protein): over 97%; rate of metabolism by human hepatocytes (human hepatocytes): 8.88E-6 ml/min/million cells; Mean Peff (Caco-2): 10.8 ×10⁻⁶ cm/s; metabolism by human intestinal microsomes [3]: 5.41E-4 ml/min/mg protein
O=c1c(-c2ccc(O)cc2)coc2cc(O)cc(O)c12 [Genistein] | < 0.03 |  |  |  | 27.5 | stimulating osteoclast differentiation | bio-transformation products formed by intestinal microflora ([2]; 100 μM, anaerobic, 37° C., up to 120 h): dihydrogenistein; rate of metabolism by human hepatocytes (human hepatocytes; isoflavone mixtures, female origin): 5.14E-6 ml/min/million cells; metabolism by human intestinal microsomes ([3]; isoflavone mixtures, glucuronidation, female origin): 4.28E-4 ml/min/mg protein
O=c1c(-c2ccc(O)cc2)coc2cc(O[C@@H]3O[C@H](CO)[C@@H](O)[C@H](O)[C@H]3O)cc(O)c12 [Genistin] |  |  |  |  | 0.346 |  | 
